Publication PMC6773865, “Functional recruitment of dynamin requires multimeric interactions for efficient endocytosis” (Nature Communications, 2019)
Where no end group is shown, it is not given here.

What was measured:
uptake of shiga toxin B = assay type: cell-based
[1] = tested on: β1 adrenergic receptor internalization in BSC-1 cells; assay: β adrenergic receptor internalization assay, β1AR; assay type: cell-based; conditions: 30 µM, 20 min pre-treatment, isoproterenol-induced
[2] = tested on: β2 adrenergic receptor internalization in BSC-1 cells; assay: β adrenergic receptor internalization assay, β2AR; assay type: cell-based; conditions: 30 µM, 20 min pre-treatment, isoproterenol-induced
[3] = tested on: uptake of cholera toxin B; assay type: cell-based
[4] = tested on: membrane capacitance of NIH 3T3 cells (balance between exocytosis and endocytosis); assay: Cell capacitance in whole cell patch-clamp; assay type: cell-based; conditions: 10th minute over 1st minute of whole cell recording; peptides 1 mM; paired t-test
Protocol: Cells were patched with pipettes made of borosilicate glass (GC150F, Harvard Apparatus) and pulled with a vertical Narishige puller (World Precision Instruments). The solution contained (in mM): 130–140 KCH3SO3, 1 EGTA, 0.1 CaCl2, 10–20 HEPES, 4 ATP (sodium or magnesium salt), 0.4 Na-GTP (or GTPγS when indicated), 5 phosphocreatine and 3 sodium ascorbate. pH was adjusted to 7.2 using KOH and osmolarity to ~300 mOsm L^−1. Sodium ascorbate was omitted in earlier recordings but was added for better stability. Chloride ions either came from 2 mM KCl, 10 mM NaCl or 4 mM MgCl2 (when Na-ATP was used) in various trials. All salts were purchased from Sigma-Aldrich. Cells were voltage-clamped at −60 mV with an EPC10 amplifier (HEKA) with series resistance and cell capacitance estimation every 4 s in the whole cell mode. The digital triggers of the amplifier were used to drive the electrovalves for pH changes. Cell viability and dialysis efficiency were made sure of by monitoring […] throughout the recording using the Patchmaster software (HEKA): series resistance should remain below 10 MΩ and holding current should remain above −100 pA. If either of these criteria was not respected (except holding current for recordings in GTPγS, see Supplementary Fig. 3D), the recording was not considered for analysis. On a given experimental day at least one control recording (i.e. without any peptide) was performed to ensure recording quality. All these recordings were pooled in the ‘control’ condition (n = 63 on 42 experimental days). […]
Supplementary Figure 5: Characteristics of the whole cell recordings in the different conditions of this study. A, Scheme of the equivalent electrical circuit of a cell recorded in the whole cell configuration. […]
This is likely due to the activation of GTP dependent trimeric G proteins which activate various channels in the presence of GTPγS, thereby increasing the holding current. […] F, Ratios of Cm recorded during the 10 th minute of recording over Cm recorded during the 1st minute. […]

[5] = tested on: clathrin mediated endocytosis (TfR-SEP) in NIH 3T3 cells; assay: ppH assay combined with patch-clamp dialysis; assay type: cell-based; conditions: for event frequency ratio f = FWC/FCA: average ± SEM, SEM
Protocol: To do so, we monitored cellular endocytic activity using the ppH assay with new developments for fully automated analysis on a large number of cells (See “Methods” and Supplementary Fig. 4). We combined this assay, which monitors in real time the endocytic activity of cells, with the patch-clamp technique in order to dialyse the relevant peptide at a known concentration inside the cellular cytoplasm to inhibit endocytosis acutely. Each recording consisted of 5 min in cell-attached mode (CA) with no dialysis followed by 10 min in whole cell mode (WC) during which the inhibitors were dialysed (Fig. 5a, b). Each recording therefore had its own internal control condition, i.e., the cell-attached mode, from which we obtained the frequency ratio f = FWC/FCA, where F is the event frequency recorded during the indicated mode. Of note, the electrical parameters of patch clamp recordings were similar in all conditions (Supplementary Fig. 5). To assess the innocuousness of this assay, we monitored the endocytic activity of unperturbed cells vs. cells dialysed with a control solution (see methods for composition). Patching the cells minimally affected their endocytic activity over a 10 min period (event frequency f = 67.3 ± 4.3%, n = 60, vs. 90.7 ± 14.9% in no patching recordings, n = 8, p = 0.58).
NIH 3T3 cells (ECACC 93061524) were cultured in DMEM supplemented with 1% sodium pyruvate, 1% glutamax and 10% fetal calf serum (Invitrogen). Cells were incubated at 37 °C in 5% CO2 until use and subcultured every 2 to 4 days for maintenance up to passage 20. Cells were transfected with 1.5 μg of TfR-SEP plasmid 24 h prior to imaging and patch clamp. Care was taken to find the right balance between sufficient fluorescent signal to allow for proper imaging and reasonable overexpression to diminish potential saturation artefacts. Best results were obtained using Fugene 6 (Promega) as the transfection reagent but Lipofectamine 2000 (Invitrogen) has also been used in this study due to a temporary arrest of Fugene 6 production by the provider. All transfections were performed according to the manufacturers’ recommendations. Four to eight hours after transfection, cells were seeded at a density of ~70,000 cells ml^−1 on 18 mm glass coverslips coated with poly-L-lysine (3 min application of 0.1 mM polylysine (Sigma P2636) in borate buffer, pH 8.0 followed by a quick rinse in PBS) and used the next day.
Fast solution exchange was controlled by electro-valves (Lee company) connected to a theta glass pipette (TG150, Harvard Apparatus) pulled to ∼100-μm tip size using a vertical puller (Narishige, World Precision Instruments) placed above the recorded cell. Cells were alternatively perfused with HEPES or MES buffered saline solutions (HBS/MBS) containing (in mM): 135 NaCl, 5 KCl, 0.4 MgCl2, 1.8 CaCl2, 1 D-glucose and 20 HEPES or MES. The pH was adjusted to 7.4 or 5.5 using NaOH and osmolarity to 310–315 mOsm L^−1 with NaCl.
Cells were patched with pipettes made of borosilicate glass (GC150F, Harvard Apparatus) and pulled with a vertical Narishige puller (World Precision Instruments). The solution contained (in mM): 130–140 KCH3SO3, 1 EGTA, 0.1 CaCl2, 10–20 HEPES, 4 ATP (sodium or magnesium salt), 0.4 Na-GTP (or GTPγS when indicated), 5 phosphocreatine and 3 sodium ascorbate. pH was adjusted to 7.2 using KOH and osmolarity to ~300 mOsm L^−1. Sodium ascorbate was omitted in earlier recordings but was added for better stability. Chloride ions either came from 2 mM KCl, 10 mM NaCl or 4 mM MgCl2 (when Na-ATP was used) in various trials. All salts were purchased from Sigma-Aldrich. Cells were voltage-clamped at −60 mV with an EPC10 amplifier (HEKA) with series resistance and cell capacitance estimation every 4 s in the whole cell mode. The digital triggers of the amplifier were used to drive the electrovalves for pH changes. […]

[6] = target: dD15-N (divalent peptide: two D15 motifs linked through their N termini by PEG linkers); assay: SPR; biotinylated peptides immobilised (50-90 RU) on biotin CAPture chips, GST-amphSH3 or Ntr-bSUMO-amphSH3 as analyte; 25 °C; 10 mM sodium phosphate pH 7.4, 150 mM NaCl, 0.01% Tween-20; single cycle kinetics, 1:1 Langmuir fit, estimated KDs
[7] = target: GST-amphSH3 (SH3 domain of murine amphiphysin1 fused to glutathione S-transferase) (not stated | murine) (UniProt Q7TQF7); assay: SEC; analytical size exclusion chromatography, Superdex200 Increase 10/300 GL, PBS + 0.01% Tween-20, 0.75 mL/min
[8] = target: T1, SUMO-amphSH3 (SH3 domain of murine amphiphysin1 fused to the small ubiquitin-like modifier) (murine, UniProt Q7TQF7 607-686); assay: SPR; biotinylated peptides immobilised (50-90 RU) on biotin CAPture chips, SUMO-amphSH3 as analyte; 25 °C; 10 mM sodium phosphate pH 7.4, 150 mM NaCl, 0.01% Tween-20; steady-state (equilibrium) analysis; conditions: both partners purified
T1 construct: amphiphysin 1, mouse, SH3 domain, residues 607-686, subcloned from pAmph1-mCherry into a modified pET-SUMO vector with a TEV site after the SUMO tag; A TEV cleavage site and multiple cloning site lie between SUMO and the SH3 domain; Monomer by SEC; also called SUMO-SH3; monomeric amphSH3; source: E. coli BL21-CodonPlus (DE3)-RIPL, auto-induction at 16 °C, purified (Ni-NTA, SEC); not shown: SUMO, …
T1 sequence (looked up): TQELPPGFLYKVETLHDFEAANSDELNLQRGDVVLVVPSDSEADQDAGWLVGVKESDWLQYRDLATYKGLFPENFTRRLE

[9] = target: dD15-N (divalent peptide: two D15 motifs linked through their N termini by PEG linkers); assay: as above
[10] = target: D44 peptide (derived from the dynamin1 PRD, bears motifs A and B); assay: as above
[11] = target: dD15-N (divalent peptide: two D15 motifs linked through their N termini by PEG linkers); assay: as above; remark: listed apart in the source

Molecule: O=C(N/N=C/c1cc(O)c(O)cc1O)c1cc2ccccc2cc1O [Dyngo4a]
- inhibition of shiga toxin B uptake (uptake of shiga toxin B): only partially sensitive to inhibition
- effect on β1AR internalization [1]: fully block
- effect on β2AR internalization [2]: fully block
- inhibition of cholera toxin B uptake [3]: only partially sensitive to inhibition

Molecule: Nc1nc2c(ncn2[C@@H]2O[C@H](COP(=O)(O)OP(=O)(O)OP(O)(O)=S)[C@@H](O)[C@H]2O)c(=O)[nH]1 [GTPγS, reference compound]
- change of Cm, Cm(10')/Cm(1') [4]: no significant decrease in Cm
- event frequency ratio f = FWC/FCA ([5]; GTP replaced by GTPγS in the pipette solution, n = 4): 11.2 ± 4.1%

Molecule: Ac-YALGGAPPVPSRPGASPDPFGPPPQVPSRPNRAPPGVPRITISDP-NH2 (N-terminus and C-terminus assumed) [D44]
- change of Cm, Cm(10')/Cm(1') [4]: no significant decrease in Cm
- event frequency ratio f = FWC/FCA ([5]; 100 µM peptide in patch pipette, event frequency 8–10 min whole cell over 3–5 min cell attached, same cell, n = 13 (D15)): 41.4 ± 9.6%
- event frequency ratio f = FWC/FCA ([5]; 1 mM peptide in patch pipette, event frequency 8–10 min whole cell over 3–5 min cell attached, same cell, n = 22 (D15), 15 (D44), 6 (dD15-C)): 20.6 ± 5.2%
- inhibition of endocytosis on dialysis ([5]; peptide dialysed through patch pipette, 3T3 cells, ppH assay): fully inhibited CCV formation

Molecule: GST-amphSH3 (SH3 domain of murine amphiphysin1 fused to glutathione S-transferase) (from UniProt Q7TQF7 607-686) (domain or fragment)
- Kd [6]: 0.509 µM
- stoichiometry N [7]: 2

Molecule: Ntr-bSUMO-amphSH3 complex (biotinylated SUMO-amphSH3 bound to tetrameric neutravidin) (from UniProt Q7TQF7 607-686)
- Kd [6]: 0.0045 µM

B1: D15 peptide (monovalent, from the dynamin1 PRD, holds motif B) (peptide)
chain: PPPQVPSRPNRAPPG-NH2
modifications: also: N-terminal biotin via TTDS spacer (biotinylated form) or N-terminal acetyl (form used in cells)
- Kd [8]: 102 ± 2 µM

B2: SUMO-amphSH3 (SH3 domain of murine amphiphysin1 fused to the small ubiquitin-like modifier) (domain or fragment)
chain: T1 sequence (looked up)
- Kd [9]: 65 µM
- Kd [10]: 37 µM
- Kd [11]: 66 µM
